The test system of test [1] is lethal amount of bacterial lipopolysaccharide (LPS). Briefly: lethal shock protocol. In kind it is in vivo, mice. The protocol:
Treatment of lethal inflammation/shock. Two compounds, 16α-bromoepiandrosterone (3β-hydroxy-16α-bromoandrostane-17-one) and 3β,16α-dihydroxy-17-oxoandrostane, were used in a lethal shock protocol. In one protocol, 3 mg of 16α-bromoepiandrosterone was administered to one group of animals by oral gavage, while another group received 3 mg of 16α-bromoepiandrosterone by subcutaneous injection. A group of control animals received a placebo control. In this protocol, the 16α-bromoepiandrosterone was administered to mice at 24 hours before and at 1 hour after administration of a lethal amount of bacterial lipopolysaccharide (LPS). By the end of the observation period, 72 hours after LPS administration, none of the vehicle treated placebo control animals had survived, while 65% of animals that received 16α-bromoepiandrosterone by oral administration survived. 50% of the animals that received 16α-bromoepiandrosterone by subcutaneous injection survived. Animals that survived for 72 hours all recovered from the LPS exposure.
In a second assay, 16α-bromoepiandrosterone or 3β,16α-dihydroxy-17-oxoandrostane was administered to mice by oral gavage at 24 hours before and 1 hour after administration of a lethal amount of LPS. A vehicle treated group of animals was used as the placebo control.

Test [2] concerns Pseudomonas aeruginosa. The experiment in a line: clearance of Pseudomonas aeruginosa infection from lung tissue. The class given is in vivo, CFTR mice. Conditions: 40 mg/kg; day 10; vs vehicle. The protocol: Clearance of bacteria from lung tissue. The capacity of 16α-bromoepiandrosterone to clear a Pseudomonas aeruginosa infection from lung tissue was shown using a previously published protocol, A. van Heeckeren et al., J. Clin. Invest., 100(11):2810-2815 […]; A. van Heeckeren et al., Am. J. Respir. Crit. Care Med., 161:271-279 2000. The protocol was conducted in CFTR mice, which are used as an animal model for human cystic fibrosis, S. D. Freedman et al., Proc. Natl. Acad. Sci. USA, 96(24):13995-14000 1999; W. Zeng et al., Am. J. Physiol. Cell. Physiol. […] Establishment of chronic P. aeruginosa infection using agarose beads containing bacteria (50 μL containing about 6.1×10^4 CFU/animal) was published earlier, J. R. Starke et al., Pediatr. Res., 22:698-702 1987. Two groups of mice (n=9 for each group) were treated with 40 mg/kg of 16α-bromoepiandrosterone or vehicle (control) and the bacterial burden in the lungs of the animals was determined at 10 days after introduction of the agarose beads into the lung.

Test [3] deals with human whole blood. The experiment in a line: γ-interferon production in human whole blood exposed to LPS. To be noted: 24 hours with LPS; 16α-bromoepiandrosterone at 100 ng/mL. The class given is cell-based. Here is the method: Anti-inflammation activity in human cells in vitro. […] The amount of γ-interferon was measured in the growth medium when the cells had been incubated in the presence of LPS for 24 hours.

For test [4], the system named is NF-κB. Briefly: inhibition of NF-κB activation in NF-κB-bla THP-1 cells after LPS stimulation. In kind it is cell-based, human. Summed up: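 THP-1 monocytes stably carrying an NF-κB response element–driven β-lactamase reporter, plated about 24 h before activation with LPS at 0.2 ng/mL. Reporter activity measured by FRET ratiometric detection; values are averages of usually 2-4 runs per compound.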

The subject of test [5] is CD4^+CD25^+ T regulatory cells. The experiment in a line: generation of CD4+CD25+ T regulatory cells after adoptive transfer. The class given is in vivo, B6 mice. To be noted: 1 mg/animal/day s.c. 14 days. The protocol:
Inhibition of the generation of CD4^+CD25^+ T regulatory cells or their activity in vivo. Purified CD4^+CD25^− T cells (5×10^6 cells) from congenic B6.SJL mice (CD45.1) per group were adoptively transferred into each of five B6 mice (CD45.2). The purified CD4^+CD25^− T cells were obtained by fluorescence activated cell sorting (FACS) of the donor cells at least twice. Vehicle (0.1% carboxymethylcellulose, 0.9% saline, 2% tween 80, 0.05% phenol) or 16α-bromoepiandrosterone in vehicle (1 mg/animal/day in 100 μL vehicle) was injected subcutaneously before transfer of the cells from the CD45.1 donor animals and the injections were continued daily for 14 days. Thymus, lymph nodes and spleens were collected from the animals at day 15. Samples of thymus, lymph node and spleen were obtained from individuals, and the cells were labeled with fluorescent antibody that bound to CD4, CD25, CD103 or Foxp3. The cells were then analyzed by flow cytometry to enumerate the numbers of the various cell types. The remainder of cells from lymph nodes and spleen of each treatment group were pooled, pre-enriched for CD4^+CD25^+ cells and then analyzed for CD4^+CD25^+ that arose from the host (endogenous CD45.2 cells) and from donor cells (CD45.1 cells that converted from the CD4^+CD25^− donor phenotype to the CD4^+CD25^+ phenotype after residing in vivo for 15 days). The cells were analyzed by cell sorter. To test for regulatory function, varying numbers of purified converted CD45.1 or endogenous CD45.2 CD4^+CD25^+ cells were co-cultured with 2000 CD4^+CD25^− responder cells, 1×10^5 irradiated spleen cells as antigen presenting cells, and […] of anti-CD3 antibody. Fresh CD4^+CD25^+ cells were used as controls. Proliferation was determined by measurement of ^3H-thymidine uptake 4 days after initiation of culture.

As a reminder, the IC50 is the concentration needed to halve the response being measured. Turning to `C[C@]12CC[C@H](O)C[C@@H]1CC[C@@H]1[C@@H]2CC[C@]2(C)C(=O)[C@H](Br)C[C@@H]12` [16α-bromoepiandrosterone], the “survival 72 hours after LPS” value in test [1] (3 mg oral gavage 24 h before and 1 h after LPS) was 65%. In addition, the “survival 72 hours after LPS” value in test [1] (3 mg subcutaneous injection 24 h before and 1 h after LPS) is listed as 50%. Moreover, the “survival 72 hours after LPS” value in test [1] (second assay, oral gavage 24 h before and 1 h after LPS) turned out to be 80%. In addition, the “bacterial burden in the lungs” value in test [2] was “reduced”. In addition, in test [3], the “production of γ-interferon” value was “Reduced production”. Also, the “maximum inhibition of NF-κB” value in test [4] came to 100%. In addition, the IC50 in test [4] (LPS stimulation, 50% of the compound's maximum inhibition, averages, read-out: IC50) worked out at 8.8 µM. Moreover, in test [5], the “donor CD45.1 CD4^+CD25^+CD103^+ cells of total donor CD4^+CD25^+ cells in spleen” value turned out to be 9.63% and the “proportion of endogenous CD45.2 CD4^+CD25^+CD103^+ Treg cells in spleen” value turned out to be 13.40%. In addition, in test [5] (day 15), the “donor CD45.1 CD4^+CD25^+ cell number in spleen” value was 0.62×10^5 cells, the “endogenous CD45.2 CD4^+CD25^+ cell number in spleen” value is listed as 5.49×10^6 cells and the “endogenous CD45.2 CD4^+CD25^+ cells in the thymus” value is on record as 1.59×10^5.

The values above are taken from US20080221074A1, “Drug Screen and Treatment Method” (priority 2006, published 2008).
